In patent US7147849B2, “Pharmaceutical formulation” (Bitop AG, priority 1999, dated 2006):

Tested on: human L540Cy tumors
Design: species or system SCID mice
Conditions: mouse, in vivo

SMILES: CC1=NC[C@H](O)[C@@H](C(=O)O)N1 [S,S-β-hydroxyectoine]
- tumor development compared with PBS without S,S-β-hydroxyectoine: faster tumor development
- average survival rates calculated according to Kaplan-Meier (iv): 30.0 (±2) days
